For series [1], the system named is HCV subgenomic replicon. Put plainly: Anti-HCV activity in HCV subgenomic replicon system (Huh7 cells, firefly luciferase). As to conditions: for Therapeutic Index in HCV replicon system CC50/IC50: Huh7 HCV replicon system. As for the experimental part: The antiviral (anti-HCV) activity of epirubicin and its derivatives was tested in vitro in cell culture model using the HCV subgenomic replicon stably transfected into Huh7 cells line (clone BM4.5) (Gao et al., J. Virol. 2001) and/or in Huh7 cells replicating selectable subgenomic HCV replicon carrying firefly luciferase gene (Vrolijk et al. J. Virol. Method. 2003).
The BM4.5 Huh7 cells were grown in cell culture medium in presence of varying concentrations of epirubicin hydrochloride (BNE00) or epirubicin derivatives. The media and drug were changed everyday for 5 days. After 5 days of treatment cells were lysed and total RNA extracted as described (Gao et al., J. Virol. 2001). The isolated RNA was then assayed for presence of HCV replication by Northern Blot analysis, using a HCV probe targeting the NS5B region of HCV. […] The cell lines were treated everyday with different epirubicin hydrochloride (BNE00) or epirubicin derivatives concentrations for 5 days and at the end of treatment, the RNA from the treated cells were isolated. The total RNA was then probed with a HCV specific probe using Northern blot analysis to detect the HCV RNA. The resulting blot was then exposed to phosphorimager densitometry and the viral replication quantified.
For Huh7 cells replicating selectable subgenomic HCV replicon carrying firefly luciferase gene cells were treated with epirubicin hydrochloride (BNE00) or epirubicin derivatives as described above for BM4,5 cells. Following the treatment, cells were lysed and firefly luciferase activity was measured using Luminoskan device (Thermolabsystem) as described (Vrolijk et al. J. Virol. Methods. 2003).
For orientation: A replicon is a self-replicating genome or part of one, used to study replication in cells.

The subject of series [2] is Huh7 cells. Put plainly: Cytotoxic activity in Huh7 cells replicating the HCV replicon. As to conditions: read-out: Cytotoxic activity in Huh7 Cells, CC50; Huh7 cells replicating subgenomic HCV replicon carrying firefly luciferase gene.
The subject of series [3] is HCV. Put plainly: Inhibition of HCV replication in chronically HCV-infected human PBMC (RT-PCR). As to conditions: for pIC50: read-out: Anti-HCV activity in PBMC IC50; for IC90: read-out: Anti-HCV activity in PBMC IC90. As for the experimental part:
In addition, the inhibition of HCV replication by epirubicin hydrochloride (BNE00), N3′-acetylepirubicin (BNE01), and N3′,O4′,O14-triacetylepirubicin (BNE02) were analyzed in chronically HCV-infected human peripheral blood monocyte cells (PBMC) cultures which was performed as follows. PBMC were isolated from HCV-infected patients blood by Ficoll Pague centrifugation placed on Petri dishes and cultured in 10% FCS, RPMI medium containing PHA (3 μg/ml) according to Laskus et al. (J Infect Dis. 2000) and enriched with known concentrations of BNE00, BNE01, BNE02 in standard conditions (37° C., 5% CO2). On day 5 and 14 of the culture the cells were collected and after extraction, HCV RNA was […] estimated by real-time Reverse Transcriptase Polymerase Chain Reaction using SYBR Green system (FIG. 3). Semiquantitative estimation of HCV RNA was also performed by Reverse Transcriptase Polymerase Chain Reaction, and visualized after electrophoresis through a 1% agarose gel, using ethidium bromide staining (FIG. 4).

Series [4] in a line: in vivo. As to conditions: both, BALB/C, mouse, ip.
Experimental: (§1) The in vivo determination of acute toxicity of drugs was performed in mice according to “OECD Guidelines for Testing of Chemicals” (Guideline No 401). The study was performed in BALB/C mice and the test substance was administrated intraperitoneally in dose of 1; 5 and 10 mg/kg b.w. Ten males and 10 females were used for each dose. A control group receiving only solvent was run concurrently.
Series [5] is described as follows: in vitro. The following applies: human.
Series [6] in a line: Cytotoxic activity in Huh7 cells replicating the HCV replicon. As to conditions: human.
The test system of series [7] is PBMC.
The test system of series [8] is BALB/C mice. Put plainly: In vivo acute toxicity in mice (OECD Guideline No 401).
Experimental: as §1
[9] abbreviates: read-out: Anti-HCV activity in HCV replicon system IC50, Huh7 cells, subgenomic HCV replicon carrying firefly luciferase gene.
Setting [10] is: Hepatitis C virus, PBMC, in Homo sapiens.
Where [11] appears, read: chronically HCV-infected human PBMC.

pIC50: −log10 of the molar value. Like-named read-outs stand apart in the source and are kept apart here. Where only a bound is given, the exact number is not on record here.

By pIC50 is commonly meant the negative decadic logarithm of the IC50, by convention in mol/L. For `COc1cccc2c1C(=O)c1c(O)c3c(c(O)c1C2=O)CC(O)(C(=O)CO)CC3OC1CC(N(C)C)C(O)C(C)O1` (stereo not shown) [BNE06, 3′-N,N-Dimethyl-4′-epidoxorubicin], in series [1], the “Therapeutic Index in HCV replicon system CC50/IC50” value is listed as 3.0. In addition, the pIC50 in series [1] (setting [9]) is 7.74. In addition, the CC50 in series [2] was determined as 60 nM.

For orientation: IC90 means the point of the concentration-response curve where the effect stands at 90%. In general, LD50 refers to the dose expected to kill half of the subjects tested. Read a low LD50 as a more toxic substance. Take `COc1cccc2c1C(=O)c1c(O)c3c(c(O)c1C2=O)C[C@@](O)(C(=O)CO)C[C@@H]3O[C@H]1C[C@H](N)[C@@H](O)[C@H](C)O1` [BNE00, 7-O-(3′-amino-2′,3′,6′-trideoxy-α,β-L-arabinohexopyranosyl)-adriamycinone, reference compound]: the pIC50 in series [1] (Hepatitis C virus, Huh-7, read-out: Anti-HCV activity in HCV replicon system IC50) was 8.70; in series [1] (Hepatitis C virus, Huh-7, read-out: anti-HCV IC50) it was 8.40 to 8.70; in series [3] (setting [10]) it was 6.49. For the same compound, the “Therapeutic Index in HCV replicon system CC50/IC50” value in series [1] was determined as 1.5. Moreover, in series [3] (setting [10]), the IC90 is 460 nM. Also, the “Therapeutic Index in PBMC TI50 CC50/IC50” value in series [3] (setting [11]) turned out to be 5.62. For the same compound, the LD50 in series [4] was 26.2 mg/kg. The CC50 was determined as 1800 nM in series [5] and 3 nM in series [6]. The CC90 in series [5] was determined as 2400 nM.

On to `COc1cccc2c1C(=O)c1c(O)c3c(c(O)c1C2=O)CC(O)(C(=O)COC(C)=O)CC3OC1CC(NC(C)=O)C(OC(C)=O)C(C)O1` (stereo not shown) [BNE02, N3′, O4′, O14-triacetyl-4′-epidoxorubicin], for which the “Therapeutic Index in HCV replicon system CC50/IC50” value in series [1] was 10. The negative-log IC50 (pIC50) in series [1] (setting [9]) was 6.30. For the same compound, in series [3] (setting [11]), the “Therapeutic Index in PBMC TI50 CC50/IC50” value is over 490.0, the negative logarithm of the IC50 (pIC50) was over 7.00 and the IC90 worked out at 500 nM. In series [7], this compound had a CC50 of 49000 nM and a CC90 of 120000 nM. Besides, in series [8] (BALB/C mice, intraperitoneal), the “LD50 (in vivo acute toxicity)” value is given as 1355.08 mg/kg b.w. Also, the “fold lower acute toxicity compared with epirubicin hydrochloride (BNE00)” value in series [8] (LD50 ratio, mice) is reported as 52 fold. Further, in series [2], the CC50 is 5000 nM.

`COc1cccc2c1C(=O)c1c(O)c3c(c(O)c1C2=O)C[C@@](O)(C(=O)CO)C[C@@H]3O[C@H]1C[C@@H](NC(C)=O)[C@H](O)[C@H](C)O1` [BNE01, N3′-acetyl-4′-epidoxorubicin]: in series [3] (setting [11]), the “Therapeutic Index in PBMC TI50 CC50/IC50” value came to 91.7, the negative-log IC50 (pIC50) was 6.44 and the 90% effect concentration (IC90) worked out at 470 nM. For the same compound, in series [7], the CC50 turned out to be 33000 nM and the CC90 is 91000 nM.

The record behind these values is patent publication US8173610B2 (priority 2005, dated 2012).
